Measured values published in ChEMBL document CHEMBL3832057.

System: Homo sapiens
Test: Evaluation of pharmacokinetic parameters for Rifampin in serum following single oral administration of 10 mg/kg Rifampin to pediatric patients.
Format: ADME, organism-based
Set-up: dose 600 mg, dose 10 mg/kg, route oral
Conditions: in vivo, dosed compound id 35, dosed compound name RIFAMPICIN, gender male and female, regimen Single dose, tissue Serum

CO[C@H]1/C=C/O[C@@]2(C)Oc3c(C)c(O)c4c(O)c(c(/C=N/N5CCN(C)CC5)c(O)c4c3C2=O)NC(=O)/C(C)=C\C=C\[C@H](C)[C@H](O)[C@@H](C)[C@@H](O)[C@@H](C)[C@H](OC(C)=O)[C@@H]1C [RIFAMPIN]
Tmax: 1 h
